Source: US11103549B2, “Use of histone methyltransferase inhibitors and histone deacetylase inhibitors for therapy of Phelan-McDermid Syndrome” (Asddr, LLC, priority 2016, dated 2021)

Assays:
Shank3+/ΔC mice [1] = experiment: Three-chamber social interaction assay in Shank3+/ΔC mice; type: in vivo; details: for improvement on social preference: i.p. once daily for 3 days
EHMT2/EHMT1 = details: cited from earlier work
Shank3+/ΔC mice [2] = details: mouse, in vivo
Shank3+/ΔC mice [3] = details: 5 mg/kg, i.p. 5 days, Kim et al., 2017; cited from earlier work
[4] = Liu et al., 2013; cited from earlier work
EHMT1/2 = details: Liu et al., 2013; cited from earlier work
WT mice = experiment: Three-chamber social interaction assay in wild-type mice; type: in vivo; details: UNC0642 1 mg/kg, i.p., once daily for 3 days, saline control 62.0%±3.1%
From the text: To test the social preference behavior, juvenile male Shank3+/ΔC mice and age-matched wild-type (WT) mice were subject to the three-chamber social interaction assay, as previously described (Duffney et al., 2015). Briefly, the test is composed of three phases with various stimuli placed in each of two side chambers. Phase 1 contains two identical nonsocial stimuli (NS1 & NS1), phase 2 contains a nonsocial stimulus (NS1) and a social stimulus (Soc1), and phase 3 contains a known social stimulus (Soc1) and a novel social stimulus (Soc2). The preference index for one stimulus over the other stimulus in each phase was compared.

BTBR T+tf/J mice = details: before and after romidepsin treatment
acetylated H3 = details: Shank3+/ΔC mice, romidepsin 0.25 mg/kg, i.p., once daily for 3 days, cortical slices
Shank3e4-9 mice = details: before and after romidepsin treatment
class I HDAC = details: Klimek et al., 2008; cited from earlier work

Cc1nc2n(c(=O)c1CCN1CCC(c3noc4cc(F)ccc34)CC1)CCCC2 [risperidone]
improvement on social preference (Shank3+/ΔC mice [1]; Shank3+/ΔC mice, risperidone 0.1 mg/kg): No improvement

O=C1CCc2ccc(OCCCCN3CCN(c4cccc(Cl)c4Cl)CC3)cc2N1 [aripiprazole]
improvement on social preference (Shank3+/ΔC mice [1]; Shank3+/ΔC mice, aripiprazole 1 mg/kg): No improvement

CC(/C=C/C(=O)NO)=C\[C@@H](C)C(=O)c1ccc(N(C)C)cc1 [Trichostatin A]
rescue of autism-like social deficits (social preference index) (Shank3+/ΔC mice [1]; Shank3+/ΔC mice, Trichostatin A 0.5 mg/kg, i.p., once daily for 3 days): fail to persistently rescue autism-like social deficits

COc1cc2c(cc1OCCCN1CCCC1)N=C(N)C21CCC1 [A-366]
selectivity over other methyltransferases and other non-epigenetic targets (EHMT2/EHMT1): > 100 fold | IC50 (EHMT2/EHMT1; peptide-competitive inhibitor, read-out: enzymatic IC50 EHMT2/EHMT1): ~3 nM

COc1cc2c(NC3CCN(C(C)C)CC3)nc(N3CCC(F)(F)CC3)nc2cc1OCCCN1CCCC1 [UNC0642, 2-(4,4-Difluoro-1-piperidinyl)-6-methoxy-N-[1-(1-methylethyl)-4-piperidinyl]-7-[3-(1-pyrrolidinyl)propoxy]-4-quinazolinamin]
blood chemistry and hematology: indicators for liver and kidney functions, lipid and protein metabolism (Shank3+/ΔC mice [2]): within normal ranges | toxicity at higher dose and longer duration (Shank3+/ΔC mice [3]): lack of toxicity | brain penetration in vivo [4]: modest brain penetration | selectivity for EHMT1/2 over other methyltransferases (EHMT1/2): > 2,000 fold | duration of therapeutic effect on social preference post-injection (Shank3+/ΔC mice [1]; Shank3+/ΔC mice, UNC0642 1 mg/kg, i.p., once daily for 3 days): ~15 days | social preference index (Soc vs. NS, phase 2) (Shank3+/ΔC mice [1]; Shank3+/ΔC mice, UNC0642 1 mg/kg, i.p., once daily for 3 days, saline control 22.5%±3.3%): 48.9%±2.3% | effect of repeated administration on social preference (Shank3+/ΔC mice [1]; Shank3+/ΔC mice, UNC0642, second round of treatment): still effective with the repeated administration | social preference index (Soc vs. NS, phase 2) (WT mice): 53.4%±5.1%

Romidepsin
rescue of autism-like social deficits (social preference index) (BTBR T+tf/J mice): rescues autism-like social deficits | duration of effect on social preference post-injection (Shank3+/ΔC mice [1]; mouse, in vivo): 21 days | preference for social stimulus over non-social object (Shank3+/ΔC mice [1]; mouse, in vivo): significantly elevated the preference for the social stimulus | level of acetylated H3 (acetylated H3): significantly elevated the level of acetylated H3 | rescue of autism-like social deficits (social preference index) (Shank3e4-9 mice): rescues autism-like social deficits in multiple mouse models of autism | potency as class I-specific HDAC inhibitor (class I HDAC): nanomolar potency

CCCC(CCC)C(=O)O [valproic acid]
rescue of autism-like social deficits (social preference index) (Shank3+/ΔC mice [1]; Shank3+/ΔC mice, valproic acid 100 mg/kg, i.p., once daily for 3 days): fail to persistently rescue autism-like social deficits

CNCCC(Oc1ccc(C(F)(F)F)cc1)c1ccccc1 (stereo not drawn) [fluoxetine]
improvement of social preference (Shank3+/ΔC mice [1]; Shank3+/ΔC mice, fluoxetine 10 mg/kg, i.p. once daily for 2 weeks): failed to induce any improvement
